The experiment has as its system intracellular PK-C. In words: [3H]PDBu binding to intact HL-60 cells. The experiment is classed as cell-based, human. As to conditions: 37° C., 30 minutes, FIG. 9, compared with naturally occurring diacylglycerol DiC8. Here is the method:
The diacylglycerol composition under investigation was stored in chloroform at -20° C. Prior to use, the diacylglycerol was dried under nitrogen and sonicated in RPMI-1640 growth media. HL-60 cells, derived from a human leukemia cell line, were cultured in RPMI-1640 growth media containing 10% horse serum. The cells were placed in fresh serum-containing growth media 24 hours prior to the experiment. Then, cells in log phase growth were placed in normal serum containing growth media with 20 mM HEPES buffer (pH 7.4) at a concentration of 5×10^6 cells/ml. The cells were incubated at 37° C. in 5% CO2 /air in the presence of [^3 H]PDBu and various concentrations of diacylglycerol.
Binding reactions were stopped after 30 minutes by filtering the cells over Whatman glass fiber GF/C filters and rinsing with cold phosphate buffered saline (pH 7.4). The filters were then dried and counted with a scintillation counter. Nonspecific binding was determined by adding 2 μM non-tritiated phorbol diester to parallel binding reactions. Specific [^3 H]PDBu binding was calculated by subtracting nonspecific [^3 H]PDBu from the total. All binding data are expressed in terms of specific binding. Specific binding typically represented 80% of the total.

Experimental findings from US4925649A, “Radioiodinated diacylglycerol analogues and methods of use” (The University of Michigan, priority 1987, dated 1990) are described below.

With `CCCCCCCC(=O)OCC(CO)OC(=O)CCc1cccc(I)c1` (racemic) [OIPG, 1-octanoyl-2-[3-(m-iodophenyl)propanoyl]-rac-glycerol], the “diacylglycerol inhibition of [3H]PDBu binding in intact HL-60 cells” value was “capable of entering intact cells and binding to intracellular PK-C in a manner similar to a naturally occurring diacylglycerol”.
